Values joined by “and” are separate entries in the source; they are usually repeats but may differ in a detail not shown here. Equal entries are not always repeated. Where two headings read alike, the source gives them in different places.
Legend:
[1] = tested on: SW620 tumors; test: Subcutaneous xenograft tumor growth; format: in vivo, Swiss nu/nu mice
Method: All procedures including animal use were performed in accordance with the Institutional Ethical Committee of Animal Care in Geneva and the Swiss Cantonal Veterinary Office (Authorization number GE‐136‐19). Briefly, female and male Swiss nu/nu mice aged 6–8 weeks were obtained from Charles River (Écully, France). For subcutaneous xenografts mice were inoculated in the left flank with 5x10^6 DLD1 or SW620 cells suspended in 100 µL of cell culture medium, supplemented with 1% FBS. Treatment was initiated when palpable tumors had formed (approximately 30 mm^3) on day 4 for DLD1 and day 5 for the SW620 model.
Treatment was initiated once tumor growth was confirmed with bioluminescence measurements. Drugs were administered through oral gavage based on average body weight of the males (100 µL/mouse) and females (80 µL/mouse) at various concentrations, see Tables S10 and S11.
Solution A: step (1) 30% PEG 400 + 5% propylene glycol + 0.5% Tween 80 and (2) 64.5% sterile H2O. Solution B: step (1) 10% DMSO, (2) 30% PEG 300 + 5% Tween 80 and (3) 55% sterile H2O. Vemurafenib was prepared 2x concentrated (half or three/sixth of total solution), and the remaining drugs were prepared 6x concentrated (one/sixth of total solution), after which drugs were diluted to prepare 1x drug concentrations for the ODC or single drugs using the other drugs or complete solvent solutions without drugs for lower concentrations. FOLFOX was administered as 6 mg/kg oxaliplatin two hours before administration of 90 mg/kg leucovorin and 50 mg/kg (DLD1) or 25 mg/kg (SW620) 5‐fluorouracil at day 1 and a repeat of 5‐fluorouracil dosing on day 2.
The Bliss independence model can be used to evaluate the drug interaction potential of a drug mixture. The model is based on the principle that each drug has an independent drug mechanism of action, but all contribute to a common result (e.g., cell death or tumor volume inhibition). The model is based on the probability theory and requires the drug activity of each drug at the selected dose to predict the inhibition rate (IR) at additive doses. For in vivo tumor volume results, we predicted the IR based on the fraction of tumor volume remaining after single‐drug treatment of each of the drugs vs 100% CTRL (F1,2,3,4), using the following formula: IR = […].

[2] = tested on: DLD1 tumors; test: Subcutaneous xenograft tumor growth; format: in vivo, Swiss nu/nu mice
Method: All procedures including animal use were performed in accordance with the Institutional Ethical Committee of Animal Care in Geneva and the Swiss Cantonal Veterinary Office (Authorization number GE‐136‐19). Briefly, female and male Swiss nu/nu mice aged 6–8 weeks were obtained from Charles River (Écully, France). For subcutaneous xenografts mice were inoculated in the left flank with 5x10^6 DLD1 or SW620 cells suspended in 100 µL of cell culture medium, supplemented with 1% FBS.
Drugs were administered through oral gavage based on average body weight of the males (100 µL/mouse) and females (80 µL/mouse) at various concentrations, see Tables S10 and S11.
Solution A: step (1) 30% PEG 400 + 5% propylene glycol + 0.5% Tween 80 and (2) 64.5% sterile H2O. Solution B: step (1) 10% DMSO, (2) 30% PEG 300 + 5% Tween 80 and (3) 55% sterile H2O. […] FOLFOX was administered as 6 mg/kg oxaliplatin two hours before administration of 90 mg/kg leucovorin and 50 mg/kg (DLD1) or 25 mg/kg (SW620) 5‐fluorouracil at day 1 and a repeat of 5‐fluorouracil dosing on day 2.
The Bliss independence model can be used to evaluate the drug interaction potential of a drug mixture. […] The model is based on the probability theory and requires the drug activity of each drug at the selected dose to predict the inhibition rate (IR) at additive doses.

[3] = Pharmacokinetics, dried blood spot LC-MS/MS, mice with SW620 tumors; format: in vivo; conditions: for Tmax / AUC(0-t) / Cmax: Swiss Nu/nu, mouse, whole blood (dried blood spot), po, regorafenib 30, vemurafenib 75, GDC-0994 10 mg/kg; for AUC(0-t) / Cmax: whole blood, mean ± SD; for AUC(0-t): oral, read-out: AUC0-24h; for increase of AUC as part of the ODC vs single-drug treatment: mice bearing SW620 tumors, AUC0-24h
Method: The pharmacokinetic (PK) study was performed using the dried blood spot method. Mice were treated with CTRL, ODCs, and corresponding monotherapies as described above. To determine the disposition in blood in the first 24h, blood samples (5 µL/mouse) were collected from the tail vein (n = 4 mice) at 2h, 4h, 8h, and 24h time points and transferred onto paper (a filter paper 903 protein saver card from Whatman (MA, USA)). A disk with the entire spot was punched from the paper card and transferred to the HPLC vial tube. Hundred µL of MeOH containing a mix of internal standards was added, and the tube was vortex‐mixed for about 1 min before injecting 10 µL into the LC‐MS/MS system. The LC‐MS/MS system consisted of an API 4,000 triple quadrupole mass spectrometer (AB sciex, Concord, ON, Canada) controlled by analyst 1.6.1 software. The mass spectrometer was operated in the multiple reaction monitoring (MRM) mode with positive electrospray ionization. The instrument was coupled with an Agilent series 1100 (Waldbronn, Germany) LC system. Chromatography was performed on a Phenomenex Kinetex C18 analytical column (50 mm x 2.1 mm, 2.6 um; Torrance, CA, USA). The flow rate was 0.5 mL/min using gradient elution conditions. The method was fully validated before application to this pharmacokinetic study.

[4] = Clinical plasma pharmacokinetics in patients, plasma concentration limit calculation; format: in vivo; conditions: average plasma concentration calculated from AUC0-24h in patients
Method: To select for clinically relevant doses, the clinically attainable drug concentration measured in the blood plasma of patients after treatment is used to calculate the concentration limit for in vitro experiments. […] The average drug concentration is calculated from the AUC0–24h and is implemented as the plasma concentration limit (PCL) which drug dose selection must remain below for in vitro experiments. If a drug is FDA approved, the AUC0–24h selected is the one corresponding to the recommended dose in clinical practice. If a drug is in clinical trials, the AUC0–24h selected is the one corresponding to the maximum tolerated dose in early stage clinical trials. Note, experiments were conducted with the most current PCL calculated from the AUC0–24h information available at the start of experiments (December 2017), see Table S4.

[5] = selumetinib 0.2 mg/kg, Exp 6, Day 20
[6] = selumetinib 0.2 mg/kg, Exp 8, Day 19
[7] = selumetinib 1 mg/kg, Exp 4, Day 22
[8] = selumetinib 10 mg/kg, Exp 4, Day 22
[9] = selumetinib 1 mg/kg, Exp 6, Day 18
[10] = selumetinib 5 mg/kg, Exp 5, Day 16
[11] = selumetinib 5 mg/kg, Exp 7, Day 25
[12] = selumetinib 10 mg/kg, Exp 5, Day 16
[13] = selumetinib 25 mg/kg, Exp 3, Day 13
[14] = given as part of SW620-specific ODC
[15] = vemurafenib 75 mg/kg, Exp 6, Day 20
[16] = vemurafenib 25 mg/kg, Exp 2, Day 14
[17] = vemurafenib 75 mg/kg b.i.d., Exp 3, Day 13
[18] = vemurafenib 75 mg/kg, Exp 2, Day 14
[19] = vemurafenib 75 mg/kg, Exp 5, Day 16
[20] = vemurafenib 75 mg/kg, Exp 7, Day 15
[21] = vemurafenib 150 mg/kg b.i.d., Exp 4, Day 16
[22] = regorafenib 30 mg/kg, Exp 4, Day 22
[23] = regorafenib 30 mg/kg, Exp 6, Day 20
[24] = regorafenib 30 mg/kg, Exp 8, Day 19
[25] = regorafenib 15 mg/kg, Exp 5, Day 16
[26] = regorafenib 30 mg/kg, Exp 2, Day 14
[27] = regorafenib 30 mg/kg, Exp 5, Day 16
[28] = regorafenib 50 mg/kg, Exp 3, Day 13

Q: Which results are given for `Cn1cnc2c(F)c(Nc3ccc(Br)cc3Cl)c(C(=O)NOCCO)cc21` [selumetinib]?
A: % CTRL (tumor volume) [1, 5]: 76 41 21 % CTRL; Volume [1, 5]: 393 214 107 mm^3; % CTRL (tumor volume) [1, 6]: 93 5 3 % CTRL; Volume [1, 6]: 588 30 21 mm^3; % CTRL (tumor volume) [1, 7]: 67 55 24 % CTRL; Volume [1, 7]: 323 265 118 mm^3; % CTRL (tumor volume) [1, 8]: 43 20 9 % CTRL; Volume [1, 8]: 209 95 43 mm^3; % CTRL (tumor volume) [2, 9]: 74 29 12 % CTRL; Volume [2, 9]: 366 142 58 mm^3; % CTRL (tumor volume) [2, 10]: 37 39 20 % CTRL; Volume [2, 10]: 237 234 125 mm^3; % CTRL (tumor volume) [2, 11]: 67 50 25 % CTRL; Volume [2, 11]: 408 223 79 mm^3; % CTRL (tumor volume) ([2]; selumetinib 10 mg/kg, Exp 4, Day 16): 82 49 22 % CTRL; % CTRL (tumor volume) [2, 12]: 33 18 8 % CTRL; Volume [2, 12]: 213 117 52 mm^3; % CTRL (tumor volume) [2, 13]: 49 33 13 % CTRL; Volume [2, 13]: 168 112 46 mm^3; % CTRL (tumor volume) ([2]; selumetinib 50 mg/kg, Exp 2, Day 14): 39 16 7 % CTRL; Tmax [3, 14]: 2 h; AUC(0-t) [3, 14]: 890 ± 130 ng·h/mL; Cmax [3, 14]: 230 ± 80 ng/mL; Tmax ([3]; mono): 2 h; AUC(0-t) ([3]; mono): 770 ± 140 ng·h/mL; Cmax ([3]; mono): 240 ± 80 ng/mL; increase of AUC as part of the ODC vs single-drug treatment [3]: 1.2 x; PCL (plasma concentration limit) [4]: 0.60 µM and 0.6 µM

Q: With `CCCS(=O)(=O)Nc1ccc(F)c(C(=O)c2c[nH]c3ncc(-c4ccc(Cl)cc4)cc23)c1F` [vemurafenib] as the molecule, how does the “% CTRL (tumor volume)” value [1, 15] read?
A: 65 42 21 % CTRL

Q: And the Volume [1, 15]?
A: 337 219 109 mm^3

Q: What about the “% CTRL (tumor volume)” value ([1]; vemurafenib 75 mg/kg, Exp 8, Day 19) of the same molecule?
A: 94 48 58 % CTRL

Q: And the “% CTRL (tumor volume)” value [2, 16]?
A: 80 33 19 % CTRL

Q: And the Volume [2, 16]?
A: 562 231 133 mm^3

Q: And the “% CTRL (tumor volume)” value [2, 17]?
A: 113 88 39 % CTRL

Q: And the Volume [2, 17]?
A: 388 304 136 mm^3

Q: And the “% CTRL (tumor volume)” value [2, 18]?
A: 87 46 23 % CTRL

Q: And the Volume [2, 18]?
A: 612 319 160 mm^3

Q: What about the “% CTRL (tumor volume)” value [2, 19] of the same molecule?
A: 94 31 14 % CTRL

Q: What about the Volume [2, 19] of the same molecule?
A: 600 200 89 mm^3

Q: And the “% CTRL (tumor volume)” value [2, 20]?
A: 123 69 24 % CTRL

Q: What about the Volume [2, 20] of the same molecule?
A: 619 347 123 mm^3

Q: What about the “% CTRL (tumor volume)” value [2, 21] of the same molecule?
A: 105 64 28 % CTRL

Q: And the Volume [2, 21]?
A: 587 354 159 mm^3

Q: And the Tmax [3, 14]?
A: 4 h

Q: What about the AUC(0-t) [3, 14] of the same molecule?
A: 48200 ± 5720 ng·h/mL

Q: What about the Cmax [3, 14] of the same molecule?
A: 4710 ± 650 ng/mL

Q: What about the Tmax ([3]; mono) of the same molecule?
A: 2 h

Q: And the AUC(0-t) ([3]; mono)?
A: 19400 ± 3250 ng·h/mL

Q: What about the Cmax ([3]; mono) of the same molecule?
A: 2560 ± 640 ng/mL

Q: And the “increase of AUC as part of the ODC vs single-drug treatment” value [3]?
A: 2.5 x

Q: What about the “PCL (plasma concentration limit)” value [4] of the same molecule?
A: 11.1 µM

Q: For `CNC(=O)c1cc(Oc2ccc(NC(=O)Nc3ccc(Cl)c(C(F)(F)F)c3)c(F)c2)ccn1` [regorafenib], which “% CTRL (tumor volume)” value [1, 22] is on record?
A: 117 45 20 % CTRL

Q: What about the Volume [1, 22] of the same molecule?
A: 567 220 98 mm^3

Q: And the “% CTRL (tumor volume)” value [1, 23]?
A: 90 78 35 % CTRL

Q: What about the Volume [1, 23] of the same molecule?
A: 468 407 182 mm^3

Q: What about the “% CTRL (tumor volume)” value [1, 24] of the same molecule?
A: 44 18 10 % CTRL

Q: And the Volume [1, 24]?
A: 278 111 64 mm^3

Q: And the “% CTRL (tumor volume)” value [2, 25]?
A: 87 75 34 % CTRL

Q: What about the Volume [2, 25] of the same molecule?
A: 559 479 214 mm^3

Q: What about the “% CTRL (tumor volume)” value ([2]; regorafenib 15 mg/kg, Exp 7, Day 15) of the same molecule?
A: 96 24 38 % CTRL

Q: And the “% CTRL (tumor volume)” value [2, 26]?
A: 85 46 20 % CTRL

Q: What about the Volume [2, 26] of the same molecule?
A: 594 320 143 mm^3

Q: What about the “% CTRL (tumor volume)” value [2, 27] of the same molecule?
A: 63 56 25 % CTRL

Q: What about the Volume [2, 27] of the same molecule?
A: 404 358 160 mm^3

Q: What about the “% CTRL (tumor volume)” value [2, 28] of the same molecule?
A: 135 76 29 % CTRL

Q: What about the Volume [2, 28] of the same molecule?
A: 465 261 99 mm^3

Q: And the Tmax [3, 14]?
A: 4 h

Q: What about the AUC(0-t) [3, 14] of the same molecule?
A: 22200 ± 1830 ng·h/mL

Q: And the Cmax [3, 14]?
A: 1610 ± 220 ng/mL

Q: What about the Tmax ([3]; mono) of the same molecule?
A: 4 h

Q: And the AUC(0-t) ([3]; mono)?
A: 9860 ± 1930 ng·h/mL

Q: And the Cmax ([3]; mono)?
A: 710 ± 260 ng/mL

Q: And the “increase of AUC as part of the ODC vs single-drug treatment” value [3]?
A: 2.2 x

Q: What about the “PCL (plasma concentration limit)” value [4] of the same molecule?
A: 4.34 µM and 4.3 µM
